# Measured values from patent US12691112B2, “FGFR tyrosine kinase inhibitors for the treatment of urothelial carcinoma” (Janssen Pharmaceutica NV, priority 2019, dated 2026).
# Values joined by “and” are separate entries in the source; they are usually repeats but may differ in a detail not shown here. Equal entries are not always repeated.
# Key:
# [1] = tested on: metastatic or surgically unresectable urothelial cancer harboring select FGFR genetic alterations; experiment: Phase 2 study NCT02365597: tumor response per independent radiographic review committee (BIRC); assay type: in vivo, human
# Procedure: Patients were contacted every 12 weeks for survival assessment.
# The study was designed to enroll 180 patients with specified FGFR alterations. Of these, ≥88 were required in the selected regimen. […] Responses were assessed by investigators and an independent radiological review committee. Progression-free survival and overall survival were estimated using Kaplan-Meier product limit method. Data from patients who were progression free and alive or with unknown status were censored at last tumor assessment. Efficacy end points were analysed at primary analysis cut-off.
# [2] = Effect of food on pharmacokinetics in healthy subjects; assay type: in vivo, human; conditions: high-fat and high-calorie meal
# [3] = Regimen 3, 8 mg continuous (n=99)
# [4] = Regimen 3, chemotherapy-refractory patients, N = 87
smiles,measurement,setting,value
"COc1cc(OC)cc(N(CCNC(C)C)c2ccc3ncc(-c4cnn(C)c4)nc3c2)c1 [erdafitinib, N-(3,5-dimethoxy-phenyl)-N′-(1-methylethyl)-N-[3-(1-methyl-1H-pyrazol-4-yl)quinoxalin-6-yl]ethane-1,2-diamine]",Complete response rate per independent radiographic review committee,[1]; [3],3 (3.0) %
same,Objective response rate per independent radiographic review committee,[1]; [3],34.3% and 34 (34.3) %
same,Partial response per independent radiographic review committee,[1]; [3],31 (31.3) %
same,"Complete response (CR), BIRC assessment",[1]; [4],2.3%
same,"Median DoR (95% CI), BIRC assessment",[1]; [4],"5.4 (4.2, 6.9) months"
same,"ORR (95% CI), BIRC assessment",[1]; [4],"32.2% and 32.2 (22.4, 42.0) %"
same,"Partial response (PR), BIRC assessment",[1]; [4],29.9%
same,"ORR (95% CI), BIRC assessment","[1]; Regimen 3, chemotherapy-refractory, FGFR3 fusion, N = 18","11.1 (0, 25.6) %"
same,effect of food on pharmacokinetics,[2],No clinically meaningful differences
